Measurements: ChEMBL document CHEMBL5034026, “Design, synthesis and evaluation of 2'-acetylene-7-deaza-adenosine phosphoamidate derivatives as anti-EV71 and anti-EV-D68 agents” (Eur J Med Chem, 2021)

What was measured:
enterovirus D68 = test: Antiviral activity against Enterovirus D68 infected in human RD cells assessed as inhibition of viral replication measured after 4 days by Cell Titer-Glo luminescent cell viability assay; assay type: functional, organism-based; details: Enterovirus D, 96 h
Enterovirus A71 = test: Antiviral activity against Enterovirus A71 infected in human RD cells assessed as inhibition of viral replication measured after 4 days by Cell Titer-Glo luminescent cell viability assay; assay type: functional, organism-based; details: Enterovirus A, 96 h
[1] = Selectivity index, ratio of CC50 for human RD cells to IC50 for Enterovirus D68 infected in human RD cells; assay type: toxicity, cell-based; details: read-out: Selectivity Index
[2] = (§1) Cytotoxicity against human RD cells assessed as reduction in cell viability by Cell Titer-Glo luminescent cell viability assay; assay type: cell-based; details: RD cells
[3] = Selectivity index, ratio of CC50 for human RD cells to IC50 for Enterovirus A71 infected in human RD cells; assay type: toxicity, cell-based; details: read-out: Selectivity Index
[4] = Cmax in CD-1 mouse assessed as parent NITD008 level at 5 mg/kg, iv by LC-MS/MS analysis; assay type: ADME, organism-based; parameters: route intravenous, dose 5 mg/kg; details: in vivo
[5] = Half life in CD-1 mouse assessed as parent NITD008 level at 25 mg/kg, po by LC-MS/MS analysis; assay type: ADME, organism-based; details: in vivo
[6] = Tmax in CD-1 mouse assessed as parent NITD008 level at 5 mg/kg, iv by LC-MS/MS analysis; assay type: ADME, organism-based; details: in vivo
[7] = AUClast in CD-1 mouse assessed as parent NITD008 level at 5 mg/kg, iv by LC-MS/MS analysis; assay type: ADME, organism-based; parameters: route intravenous, time 0 - last, dose 5 mg/kg; details: in vivo
[8] = Half life in CD-1 mouse assessed as parent NITD008 level at 5 mg/kg, iv by LC-MS/MS analysis; assay type: ADME, organism-based; details: in vivo
[9] = Tmax in CD-1 mouse assessed as parent NITD008 level at 25 mg/kg, po by LC-MS/MS analysis; assay type: ADME, organism-based; details: in vivo
[10] = Cmax in CD-1 mouse assessed as parent NITD008 level at 25 mg/kg, po by LC-MS/MS analysis; assay type: ADME, organism-based; parameters: route oral, dose 25 mg/kg; details: in vivo
[11] = AUCinf in CD-1 mouse assessed as parent NITD008 level at 5 mg/kg, iv by LC-MS/MS analysis; assay type: ADME, organism-based; parameters: route intravenous, time infinity, dose 5 mg/kg; details: in vivo
[12] = AUCinf in CD-1 mouse assessed as parent NITD008 level at 25 mg/kg, po by LC-MS/MS analysis; assay type: ADME, organism-based; parameters: route oral, time infinity, dose 25 mg/kg; details: in vivo
[13] = AUClast in CD-1 mouse assessed as parent NITD008 level at 25 mg/kg, po by LC-MS/MS analysis; assay type: ADME, organism-based; parameters: route oral, time 0 - last, dose 25 mg/kg; details: in vivo
RD = test: as §1; assay type: cell-based; details: rd

| Compound | IC50 (enterovirus D68) [nM] | IC50 (Enterovirus A71) [nM] | selectivity ratio [1] | CC50 [2] [µM] | selectivity ratio [3] | CC50 (RD) [µM] | also measured |
| --- | --- | --- | --- | --- | --- | --- | --- |
| C#C[C@@]1(O)[C@H](O)[C@@H](COP(=O)(N[C@@H](CCSC)C(=O)OC(C)C)Oc2ccccc2)O[C@H]1n1ccc2c(N)ncnc21 (stereo not given in full) | 3060 | 790 | 2.92 | 8.95 | 11.3 |  |  |
| C#C[C@@]1(O)[C@H](O)[C@@H](COP(=O)(N[C@@H](CC(C)C)C(=O)OC(C)C)Oc2ccccc2)O[C@H]1n1ccc2c(N)ncnc21 (stereo not given in full) | 410 | 620 | 51.2 | 21 | 33.8 |  |  |
| C#C[C@@]1(O)[C@H](O)[C@@H](COP(=O)(N[C@@H](C)C(=O)OC(C)C)Oc2ccccc2)O[C@H]1n1ccc2c(N)ncnc21 (stereo not given in full) | 1780 | 910 | 8.73 | 15.5 | 17.1 |  |  |
| C#C[C@@]1(O)[C@H](O)[C@@H](COP(=O)(N[C@@H](Cc2c[nH]c3ccccc23)C(=O)OC(C)C)Oc2ccccc2)O[C@H]1n1ccc2c(N)ncnc21 (stereo not given in full) | 1030 | 1210 | 13.4 | 13.8 | 11.4 |  |  |
| C#C[C@@]1(O)[C@H](O)[C@@H](COP(=O)(N[C@H](CCSC)C(=O)OC(C)C)Oc2ccccc2)O[C@H]1n1ccc2c(N)ncnc21 (stereo not given in full) | 49200 |  | 0.4 |  |  |  |  |
| C#C[C@@]1(O)[C@H](O)[C@@H](COP(=O)(N[C@@H](C)C(=O)OCCCCCC)Oc2ccccc2)O[C@H]1n1ccc2c(N)ncnc21 (stereo not given in full) | 360 | 130 | 94.5 | 34 | 262 |  | Cmax [4]: 1403 ng/mL; t1/2 [5]: 5.39 h; Tmax [6]: 1.98 min; AUClast [7]: 359 ng·h/mL; t1/2 [8]: 4.05 h; Tmax [9]: 8.4 min; Cmax [10]: 103 ng/mL; AUC [11]: 373 ng·h/mL; AUC [12]: 368 ng·h/mL; AUClast [13]: 334 ng·h/mL |
| C#C[C@@]1(O)[C@H](O)[C@@H](COP(=O)(N[C@@H](C)C(=O)OCCCCC)Oc2ccccc2)O[C@H]1n1ccc2c(N)ncnc21 (stereo not given in full) | 530 | 300 | 99.9 | 52.9 |  |  |  |
| C#C[C@@]1(O)[C@H](O)[C@@H](COP(=O)(N[C@@H](C)C(=O)OC2CCCC2)Oc2ccccc2)O[C@H]1n1ccc2c(N)ncnc21 (stereo not given in full) | 250 | 580 |  |  |  |  |  |
| C#C[C@@]1(O)[C@H](O)[C@@H](COP(=O)(N[C@H](C(=O)OC)C(C)C)Oc2ccccc2)O[C@H]1n1ccc2c(N)ncnc21 (stereo not given in full) | 2650 | 1390 | > 6.61 |  | > 72 | > 100 |  |
| C#C[C@@]1(O)[C@H](O)[C@@H](COP(=O)(N[C@H](C)C(=O)OC(C)C)Oc2ccccc2)O[C@H]1n1ccc2c(N)ncnc21 (stereo not given in full) | 13400 | 6310 | > 8.75 |  | > 15.8 | > 100 |  |
| C#C[C@@]1(O)[C@H](O)[C@@H](COP(=O)(N[C@@H](C)C(=O)OCC(C)(C)C)Oc2ccccc2)O[C@H]1n1ccc2c(N)ncnc21 (stereo not given in full) | 530 | 390 | 57.1 | 30.2 | 77.5 |  | Cmax [4]: 1983 ng/mL; t1/2 [5]: 4.97 h; Tmax [6]: 1.98 min; AUClast [7]: 800 ng·h/mL; t1/2 [8]: 3.3 h; Tmax [9]: 49.8 min; Cmax [10]: 165 ng/mL; AUC [11]: 833 ng·h/mL; AUC [12]: 744 ng·h/mL; AUClast [13]: 722 ng·h/mL |
| C#C[C@@]1(O)[C@H](O)[C@@H](COP(=O)(N[C@@H](C)C(=O)OCC)Oc2ccccc2)O[C@H]1n1ccc2c(N)ncnc21 (stereo not given in full) | 1230 | 830 | 27.1 | 33.4 | 40.2 |  |  |
| C#C[C@@]1(O)[C@H](O)[C@@H](COP(=O)(N[C@H](CC(C)C)C(=O)OC(C)C)Oc2ccccc2)O[C@H]1n1ccc2c(N)ncnc21 (stereo not given in full) | 18600 | 550 | 3.7 | 68.7 | 125 |  |  |
| C#C[C@@]1(O)[C@H](O)[C@@H](COP(=O)(NCC(=O)OC(C)C)Oc2ccccc2)O[C@H]1n1ccc2c(N)ncnc21 (stereo not given in full) | 7930 | 6610 | > 14.1 |  | > 15.1 | > 100 |  |
| C#C[C@@]1(O)[C@H](O)[C@@H](COP(=O)(N[C@@H](C)C(=O)OCCC)Oc2ccccc2)O[C@H]1n1ccc2c(N)ncnc21 (stereo not given in full) | 450 | > 100000 | 105 | 47.4 | < 0.47 |  |  |
| C#C[C@@]1(O)[C@H](O)[C@@H](COP(=O)(N[C@@H](C(=O)OC)C(C)C)Oc2ccccc2)O[C@H]1n1ccc2c(N)ncnc21 (stereo not given in full) | 21600 | 12700 | > 8.55 |  | > 7.86 | > 100 |  |
| C#C[C@@]1(O)[C@H](O)[C@@H](COP(=O)(N[C@@H](C)C(=O)OCCCC)Oc2ccccc2)O[C@H]1n1ccc2c(N)ncnc21 (stereo not given in full) | 360 | 580 | > 556 |  | > 345 | > 200 |  |
| C#C[C@@]1(O)[C@H](O)[C@@H](COP(=O)(N[C@@H](C)C(=O)OC(CC)CC)Oc2ccccc2)O[C@H]1n1ccc2c(N)ncnc21 (stereo not given in full) | 1170 | 1440 | > 171 |  | > 139 | > 200 |  |
| C#C[C@@]1(O)[C@H](O)[C@@H](COP(=O)(N[C@H](Cc2ccccc2)C(=O)OC(C)C)Oc2ccccc2)O[C@H]1n1ccc2c(N)ncnc21 (stereo not given in full) | 6080 | 8160 | 2.22 | 13.5 | 1.66 |  |  |
| C#C[C@@]1(O)[C@H](O)[C@@H](COP(=O)(N[C@@H](Cc2ccccc2)C(=O)OC(C)C)Oc2ccccc2)O[C@H]1n1ccc2c(N)ncnc21 (stereo not given in full) | 12600 | 180 | 5.52 | 69.2 | 385 |  |  |
| C#C[C@@]1(O)[C@H](O)[C@@H](COP(=O)(N[C@@H](C)C(=O)OCC(C)C)Oc2ccccc2)O[C@H]1n1ccc2c(N)ncnc21 (stereo not given in full) | 240 |  | 169 |  |  |  |  |
| C#C[C@@]1(O)[C@H](O)[C@@H](COP(=O)(N[C@@H](C)C(=O)OC)Oc2ccccc2)O[C@H]1n1ccc2c(N)ncnc21 (stereo not given in full) | 1670 | 1160 | > 59.9 |  | > 86.2 | > 100 |  |
| C#C[C@@]1(O)[C@H](O)[C@@H](COP(=O)(N[C@H](Cc2c[nH]c3ccccc23)C(=O)OC(C)C)Oc2ccccc2)O[C@H]1n1ccc2c(N)ncnc21 (stereo not given in full) | 7810 | 1620 | 5.38 | 42 | 25.9 |  |  |
